In ChEMBL document CHEMBL1150305, “Synthesis and in vitro PDT activity of miscellaneous porphyrins with amino acid and uracil” (2008):

experiment: Photocytotoxicity against human Ec9706 cells after 2.5 hrs irradiation measured after 24 hrs incubation in dark by MTT assay; format: functional

Compound	inhibition (INH)
CC(C)(C)OC(=O)N[C@@H](Cc1ccccc1)C(=O)Nc1ccc(-c2c3nc(c(-c4ccc(NC(=O)[C@H](Cc5ccccc5)NC(=O)OC(C)(C)C)cc4)c4ccc([nH]4)c(-c4ccccc4)c4nc(c(-c5ccccc5)c5ccc2[nH]5)C=C4)C=C3)cc1	100%
Nc1ccc(-c2c3nc(c(-c4ccc(NC(=O)Cn5cc(F)c(=O)[nH]c5=O)cc4)c4ccc([nH]4)c(-c4ccccc4)c4nc(c(-c5ccccc5)c5ccc2[nH]5)C=C4)C=C3)cc1	97.09%
Nc1ccc(-c2c3nc(c(-c4ccc(NC(=O)[C@@H](N)Cc5ccccc5)cc4)c4ccc([nH]4)c(-c4ccccc4)c4nc(c(-c5ccccc5)c5ccc2[nH]5)C=C4)C=C3)cc1	37.94%
N[C@@H](Cc1ccccc1)C(=O)Nc1ccc(-c2c3nc(c(-c4ccc(NC(=O)Cn5cc(F)c(=O)[nH]c5=O)cc4)c4ccc([nH]4)c(-c4ccccc4)c4nc(c(-c5ccccc5)c5ccc2[nH]5)C=C4)C=C3)cc1	69.45%
N[C@@H](Cc1ccccc1)C(=O)Nc1ccc(-c2c3nc(c(-c4ccc(NC(=O)[C@@H](N)Cc5ccccc5)cc4)c4ccc([nH]4)c(-c4ccccc4)c4nc(c(-c5ccccc5)c5ccc2[nH]5)C=C4)C=C3)cc1	96.13%
CC(C)(C)OC(=O)N[C@@H](Cc1ccccc1)C(=O)Nc1ccc(-c2c3nc(c(-c4ccc(N)cc4)c4ccc([nH]4)c(-c4ccccc4)c4nc(c(-c5ccccc5)c5ccc2[nH]5)C=C4)C=C3)cc1	47.21%
O=C(Cn1cc(F)c(=O)[nH]c1=O)Nc1ccc(-c2c3nc(c(-c4ccc(NC(=O)Cn5cc(F)c(=O)[nH]c5=O)cc4)c4ccc([nH]4)c(-c4ccccc4)c4nc(c(-c5ccccc5)c5ccc2[nH]5)C=C4)C=C3)cc1	100%
CC(C)(C)OC(=O)N[C@@H](Cc1ccccc1)C(=O)Nc1ccc(-c2c3nc(c(-c4ccc(NC(=O)Cn5cc(F)c(=O)[nH]c5=O)cc4)c4ccc([nH]4)c(-c4ccccc4)c4nc(c(-c5ccccc5)c5ccc2[nH]5)C=C4)C=C3)cc1	88.65%
Nc1ccc(-c2c3nc(c(-c4ccc(N)cc4)c4ccc([nH]4)c(-c4ccccc4)c4nc(c(-c5ccccc5)c5ccc2[nH]5)C=C4)C=C3)cc1	66.6%
